What is called IC50 is the concentration that inhibits the measured activity by half.

The source of these data is EP1000039B1 (Wyeth Holdings Corporation, priority 1997, dated 1999).

≈ marks a conversion by molar mass, not a printed value.

Data set [1] relates to Human Epidermoid Tumors (A431). Description: In Vivo Inhibition of the Growth of Human Epidermoid Tumors (A431) in mice. Conditions: days 1 through 10.
Data set [2] has as its target T1, His-tagged cytoplasmic domain of EGFR (Homo sapiens, UniProt P00533).
T1 construct: containing the EGFR cDNA encoding amino acids 645 - 1186 preceded by Met-Ala-(His)6; Met-Ala-(His)6 (N); made in house; host or cells: Sf9 insect cells, recombinant baculovirus vHcEGFR52
Nature of the data set: Inhibition of Epidermal Growth Factor Receptor Kinase (EGF-R) using recombinant enzyme, RR-SRC peptide phosphorylation. It is filed as biochemical. Conditions: recombinant enzyme; average of the number of tests; read-out: IC50. As for the experimental part:
The enzyme used in this assay is the His-tagged cytoplasmic domain of EGFR. […] Sf9 cells in 100 mm plates were infected at an moi of 10 pfu/cell and cells were harvested 48 h post infection. A cytoplasmic extract was prepared using 1% Triton X-100 and applied to Ni-NTA column. After washing the column with 20 mM imidazole, HcEGFR was eluted with 250 mM imidazole (in 50 mM Na2HPO4, pH 8.0, 300 mM NaCl). Fractions collected were dialyzed against 10 mM HEPES, pH 7.0, 50 mM NaCl, 10% glycerol, 1ug/mL antipain and leupeptin and 0. 1 mM Pefabloc SC. The protein was frozen in dry ice/methanol and stored -70°C.
For the enzyme reaction, 10 uL of each inhibitor (at various concentrations) were added to each well of a 96-well plate. To this was added 3 uL of enzyme (1: 10 dilution in 10mM HEPES, pH 7.4 for final conc. of 1:120). This was allowed to sit for 10 min on ice and was followed by the addition of 5 ul peptide (80 uM final conc.), 10ul of 4X Buffer (Table A), 0.25 uL ^33P-ATP and 12 uL H2O. The reaction was allowed to run for 90 min at room temperature and was followed by spotting the entire volume on to precut P81 filter papers. The filter discs were washed 2X with 0.5% phosphoric acid and radioactivity was measured using a liquid scintillation counter.

The subject of data set [3] is Human Epidermoid Tumors (A431). Description: In Vivo Inhibition of the Growth of Human Epidermoid Tumors (A431) in mice. The method, then: BALB/c nu/nu female mice (Charles River, Wilmington, MA) were used in the in vivo standard pharmacological test procedures. Human epidermoid carcinoma cells A-431 (American Type Culture Collection, Rockville, Maryland # CRL-155) were grown in vitro as described above. A unit of 5 X 10^6 cells were injected SC into mice. When tumors attained a mass of between 100 and 150 mg, the mice were randomized into treatment groups (day zero). Mice were treated iP or PO once a day either on days 1, 5, and 9 or on days 1 through 10 post staging with doses of either 80, 40 or 20, or 10 mg/kg/dose of the compound to be evaluated in 0.2% Klucel. Control animals received no drug. Tumor mass was determined every 7 days [(length X width^2)/2) for 28 days post staging. Relative tumor growth (Mean tumor mass on day 7, 14, 21, and 28 divided by the mean tumor mass on day zero) is determined for each treatment group. The %T/C (Tumor/Control) is determined by dividing the relative tumor growth of the treated group by the relative tumor growth of the placebo group and multiplying by 100. A compound is considered to be active if the %T/C is found to be […].

The subject of data set [4] is SKBR3. Nature of the data set: Inhibition of Cancer Cell Growth (Sulforhodamine B). It is filed as cell-based, Human. Conditions: Homo sapiens, SK-BR-3, 48 hours exposure, read-out: Inhibition of Cancer Cell Growth as Measured by Cell Number (IC50) SKBR3. As for the experimental part: (§1) After 48 hours exposure to test compounds, cells were fixed with trichloroacetic acid, and stained with Sulforhodamine B. After washing with trichloroacetic acid, bound dye was solubilized in 10 mM Tris base and optical density was determined using plate reader. Under conditions of the assay the optical density is proportional to the number of cells in the well. […] The test procedure is described in details by Philip Skehan et. al. J.Natl. Canc. […]

In data set [5] the test system is A431. The data set is described as above. Conditions: Homo sapiens, A-431, 48 hours exposure, read-out: Inhibition of Cancer Cell Growth as Measured by Cell Number (IC50) A431. The format is cell-based, Human. The method, then:
as §1

The test system of data set [6] is SW620. The data set is described as above. It is filed as cell-based, Human. Conditions: Homo sapiens, SW-620, 48 hours exposure, read-out: Inhibition of Cancer Cell Growth as Measured by Cell Number (IC50) SW620. As for the experimental part:
as §1

The test system of data set [7] is MCF7. The description is as above. The format is cell-based, Human. The conditions noted are these: Homo sapiens, 48 hours exposure, read-out: Inhibition of Cancer Cell Growth as Measured by Cell Number (IC50) MCF7. As for the experimental part:
as §1

The test system of data set [8] is MB435. The data set is described as above. It is filed as cell-based, Human. The conditions noted are these: Homo sapiens, 48 hours exposure, read-out: Inhibition of Cancer Cell Growth as Measured by Cell Number (IC50) MB435. The method, then: as §1
Data set [9] relates to LOX. The data set is described as above. The format is cell-based, Human. Conditions: Homo sapiens, 48 hours exposure, read-out: Inhibition of Cancer Cell Growth as Measured by Cell Number (IC50) LOX. The method, then:
as §1

The subject of data set [10] is A2780DDP. Described as above. The format is cell-based, Human. Conditions: Homo sapiens, 48 hours exposure, read-out: Inhibition of Cancer Cell Growth as Measured by Cell Number (IC50) A2780DDP. The method, then: as §1
Data set [11] relates to A2780S. The description is as above. It is filed as cell-based, Human. The conditions noted are these: Homo sapiens, 48 hours exposure, read-out: Inhibition of Cancer Cell Growth as Measured by Cell Number (IC50) A2780S. The method, then: as §1
In data set [12] the target is epidermal growth factor receptor kinase (Homo sapiens, UniProt P00533). Nature of the data set: Inhibition of Epidermal Growth Factor Receptor Kinase (EGF-R), cell membrane preparation (A431 membrane extract), RR-SRC peptide phosphorylation. The conditions noted are these: average of the number of tests.
Sequence of epidermal growth factor receptor kinase (P00533 25-1210): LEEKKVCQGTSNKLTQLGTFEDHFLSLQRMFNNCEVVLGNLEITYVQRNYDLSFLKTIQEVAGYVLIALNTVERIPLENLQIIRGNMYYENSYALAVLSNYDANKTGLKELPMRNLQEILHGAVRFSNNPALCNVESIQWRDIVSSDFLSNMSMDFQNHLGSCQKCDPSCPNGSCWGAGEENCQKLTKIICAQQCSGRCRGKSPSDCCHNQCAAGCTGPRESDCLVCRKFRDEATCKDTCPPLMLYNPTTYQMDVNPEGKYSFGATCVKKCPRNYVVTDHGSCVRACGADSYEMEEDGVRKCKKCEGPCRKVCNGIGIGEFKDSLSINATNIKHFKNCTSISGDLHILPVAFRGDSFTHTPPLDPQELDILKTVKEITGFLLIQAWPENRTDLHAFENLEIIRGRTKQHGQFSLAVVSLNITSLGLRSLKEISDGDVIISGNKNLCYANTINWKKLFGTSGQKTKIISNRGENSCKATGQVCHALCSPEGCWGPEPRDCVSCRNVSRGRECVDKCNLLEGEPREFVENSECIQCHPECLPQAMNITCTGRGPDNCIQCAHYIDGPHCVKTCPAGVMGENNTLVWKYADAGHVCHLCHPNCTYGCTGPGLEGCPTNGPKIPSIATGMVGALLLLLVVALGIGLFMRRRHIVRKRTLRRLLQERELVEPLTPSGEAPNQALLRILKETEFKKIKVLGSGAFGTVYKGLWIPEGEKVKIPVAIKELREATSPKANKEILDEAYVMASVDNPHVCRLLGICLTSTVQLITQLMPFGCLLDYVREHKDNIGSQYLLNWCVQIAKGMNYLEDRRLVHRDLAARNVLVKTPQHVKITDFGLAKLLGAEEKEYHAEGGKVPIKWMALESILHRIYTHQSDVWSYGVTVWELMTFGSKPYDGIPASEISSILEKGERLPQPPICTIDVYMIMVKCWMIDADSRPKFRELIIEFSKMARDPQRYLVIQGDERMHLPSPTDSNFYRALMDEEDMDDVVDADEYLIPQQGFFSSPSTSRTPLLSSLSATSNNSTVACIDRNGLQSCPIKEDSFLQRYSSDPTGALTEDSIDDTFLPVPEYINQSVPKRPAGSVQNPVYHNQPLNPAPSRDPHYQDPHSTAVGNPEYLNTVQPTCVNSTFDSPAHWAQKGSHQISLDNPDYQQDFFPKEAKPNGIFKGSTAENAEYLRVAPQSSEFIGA
Experimental: Test compounds were evaluated for their ability to inhibit the phosphorylation of the tyrosine residue of a peptide substrate catalyzed by the enzyme epidermal growth factor receptor kinase. […] The enzyme was obtained as a membrane extract of A431 cells (American Type Culture Collection, Rockville, MD). A431 cells were grown in T175 flasks to 80% confluency. The cells were washed twice with phosphate buffered saline (PBS) without Ca^2+. Flasks were rotated for 1.5 hours in 20 mL PBS with 1.0 mM ethylenediaminetetraacetic acid (EDTA) at room temperature and centrifuged at 600g for 10 minutes. […]
An aliquot of the A431 membrane extract (10 mg/mL) was diluted in 30 mM HEPES (pH 7.4) to give a protein concentration of 50 ug/mL. […] The % inhibition of the test compound was determined for at least three different concentrations and the IC50 value was evaluated from the dose response curve. […] CPM(control) is in units of counts per minute and was a number expressing the amount of radiolabled ATP (γ-^33P) incorporated onto the RR-SRC peptide substrate by the enzyme after 30 minutes at 30°C in the absence of test compound as measured by liquid scintillation counting. […]

T1 sequence (P00533 669-1210): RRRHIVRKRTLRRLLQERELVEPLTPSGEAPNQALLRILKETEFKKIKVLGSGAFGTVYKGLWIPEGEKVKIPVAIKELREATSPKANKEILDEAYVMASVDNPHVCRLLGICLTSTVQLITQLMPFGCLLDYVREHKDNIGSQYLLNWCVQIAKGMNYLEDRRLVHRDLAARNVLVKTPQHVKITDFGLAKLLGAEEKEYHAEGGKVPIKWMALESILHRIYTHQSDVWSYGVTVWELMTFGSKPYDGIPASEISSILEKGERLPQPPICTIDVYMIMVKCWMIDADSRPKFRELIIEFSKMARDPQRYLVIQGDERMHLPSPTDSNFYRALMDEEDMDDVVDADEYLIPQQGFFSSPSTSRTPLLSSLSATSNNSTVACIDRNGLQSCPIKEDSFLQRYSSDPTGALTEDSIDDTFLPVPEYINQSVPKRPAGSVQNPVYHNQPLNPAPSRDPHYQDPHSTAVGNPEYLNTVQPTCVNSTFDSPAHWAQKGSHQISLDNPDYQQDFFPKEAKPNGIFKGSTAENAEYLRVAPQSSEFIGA

Turning to `CN(C)CC#CC(=O)Nc1ccc2ncnc(Nc3cccc(Br)c3)c2c1` [Example 21, 4-Dimethylamino-but-2-ynoic acid [4-(3-bromo-phenylamino)-quinazolin-6-yl]-amide], the “%T/C Day 16” value amounted to 56% in data set [1] (10 mg/kg/dose PO (footnote: IP)), 82% in data set [1] (20 mg/kg/dose PO (footnote: IP)) and 84% in [1] (40 mg/kg/dose PO (footnote: IP)).
With `CCN(CC)CC#CC(=O)Nc1ccc2ncnc(Nc3cccc(Br)c3)c2c1` [Example 25, 4-Diethylamino-but-2-ynoic acid [4-(3-bromo-phenylamino)-quinazolin-6-yl]-amide], the IC50 was 14 nM in data set [2]; 0.004 µg/mL (≈ 0.00884 µM) in data set [4]; 0.06 µg/mL (≈ 0.133 µM) in data set [5]; 0.07 µg/mL (≈ 0.155 µM) in data set [6]; 0.74 µg/mL (≈ 1.64 µM) in data set [7]; 0.05 µg/mL (≈ 0.111 µM) in [8]. The IC50 in [9] stood at 0.1 µg/mL (≈ 0.221 µM); in data set [10] it was 0.04 µg/mL (≈ 0.0884 µM); in data set [11] it was 0.04 µg/mL (≈ 0.0884 µM). For the same compound, in data set [3] (Table 5: 40 PO, days 1 through 10), the “S/T (No. Survivors/No. Treated on Day +28 post tumor staging)” value was 4/5. Also, the “%T/C Day 7” value in [3] (Table 5: 40 PO, days 1 through 10, Day 7) is 71%. The “%T/C Day 14” value in data set [3] (Table 5: 40 PO, days 1 through 10, Day 14) came to 33%. For the same compound, in data set [3] (Table 5: 40 PO, days 1 through 10, Day 21), the “%T/C Day 21” value came to 40%. For the same compound, in [3] (Table 5: 40 PO, days 1 through 10, Day 28), the “%T/C Day 28” value was found to be 52%. Moreover, the “inhibition of tumor growth in vivo (result in words)” value in data set [3] (summary of the results of TABLE 4 / TABLE 5) is “effective inhibitor of tumor growth in vivo”.
As for `COCCOCC#CC(=O)Nc1ccc2ncnc(Nc3cccc(Br)c3)c2c1` [Example 55, 4-(2-Methoxy-ethoxy)-but-2-ynoic acid [4-(3-bromo-phenylamino)-quinazolin-6-yl]-amide], the IC50 turned out to be 2 nM in data set [2]; 0.3 µg/mL (≈ 0.659 µM) in data set [4]; 0.4 µg/mL (≈ 0.879 µM) in data set [5]; 0.1 µg/mL (≈ 0.22 µM) in [6]; 5 µg/mL (≈ 11 µM) in data set [7]; 2.8 µg/mL (≈ 6.15 µM) in data set [8]. Moreover, the IC50 in [9] was 0.2 µg/mL (≈ 0.439 µM); in [10], 0.5 µg/mL (≈ 1.1 µM); in data set [11] it was 0.02 µg/mL (≈ 0.0439 µM).
As to `COCOCC#CC(=O)Nc1ccc2ncnc(Nc3cccc(Br)c3)c2c1` [Example 57, 4-Methoxymethoxy-but-2-ynoic acid [4-(3-bromo-phenylamino)-quinazolin-6-yl]-amide], the IC50 in data set [2] was determined as 8 nM; in data set [4], 1.2 µg/mL (≈ 2.72 µM); in data set [5] it was 2.8 µg/mL (≈ 6.35 µM); in [6] it was 1.8 µg/mL (≈ 4.08 µM); in data set [7], 8.7 µg/mL (≈ 19.7 µM); in [8], 5.7 µg/mL (≈ 12.9 µM). Also, the IC50 came to 0.9 µg/mL (≈ 2.04 µM) in data set [9], 2.5 µg/mL (≈ 5.67 µM) in data set [10] and 0.7 µg/mL (≈ 1.59 µM) in data set [11].
`C=C(CNc1ccc2ncnc(Nc3cccc(Br)c3)c2c1)C(=O)OC` [Example 59, 2-{[4-(3-Bromo-phenylamino)-quinazolin-6-ylamino]-methyl)-acrylic acid methyl ester]: the IC50 in data set [12] stood at 1.26 nM; in data set [5] it was 0.315 µg/mL (≈ 0.762 µM); in [6], 0.581 µg/mL (≈ 1.41 µM); in data set [7], 1.58 µg/mL (≈ 3.82 µM); in [9] it was 0.482 µg/mL (≈ 1.17 µM); in [10], 0.603 µg/mL (≈ 1.46 µM). Besides, the IC50 in data set [11] is 0.424 µg/mL (≈ 1.03 µM).
On to `COC(=O)/C=C/CNc1ccc2ncnc(Nc3cccc(Br)c3)c2c1` [Example 60, (E)-4-[4-(3-Bromo-phenylamino)-quinazolin-6-ylamino]-but-2-enoicacid methyl ester], for which the IC50 is 34 nM in [12]; 0.35 µg/mL (≈ 0.847 µM) in data set [5]; 1.89 µg/mL (≈ 4.57 µM) in [6]; 0.566 µg/mL (≈ 1.37 µM) in data set [7]; 0.725 µg/mL (≈ 1.75 µM) in data set [9]; 0.626 µg/mL (≈ 1.51 µM) in [10]. Also, the concentration for half-maximal inhibition (IC50) in data set [11] stood at 0.749 µg/mL (≈ 1.81 µM).
For the compound `CC#CC(=O)Nc1ccc2ncnc(Nc3cccc(N(C)C)c3)c2c1` [Example 61, But-2-ynoic acid [4-(3-dimethylamino-phenylamino)-quinazolin-6-yl]-amide], the IC50 in data set [2] was found to be 80 nM; in data set [4] it was 0.04 µg/mL (≈ 0.116 µM); in data set [5] it was 0.73 µg/mL (≈ 2.11 µM); in data set [6], 0.43 µg/mL (≈ 1.24 µM); in data set [7], 3.62 µg/mL (≈ 10.5 µM); in data set [8] it was 4.35 µg/mL (≈ 12.6 µM). Moreover, the half-maximal inhibitory concentration (IC50) worked out at 0.5 µg/mL (≈ 1.45 µM) in data set [9], 1.39 µg/mL (≈ 4.02 µM) in data set [10] and 1.86 µg/mL (≈ 5.38 µM) in data set [11].
